Literature values as cited in patent US20240226080A1, “Pharmaceutical Mixture Comprising Amorphous Pitolisant” (Alfred E. Tiefenbacher GmbH & Co. KG, priority 2022, published 2024).
Counter-ions that a name gives are not always drawn.

Assays:
[1] = for Solubility (% w/v) Water room T: room temperature
[2] = 23° C.; listed as oxalate salt

## Clc1ccc(CCCOCCCN2CCCCC2)cc1 [Hydrogen oxalate, 1-[3-[3-(4-chlorophenyl)propoxy]propyl]-piperidine]
[1]
  Solubility (% w/v) pH 4.5: 1-3 % w/v
  Solubility (% w/v) pH 7.4: 3-10 % w/v
  Solubility (% w/v) Water room T: 1-3 % w/v
[2]
  aqueous solubility: 25 mg/mL

## Clc1ccc(CCCOCCCN2CCCCC2)cc1 [Monohydrochloride, 1-[3-[3-(4-chlorophenyl)propoxy]propyl]-piperidine]
[1]
  Solubility (% w/v) pH 4.5: >100 % w/v
  Solubility (% w/v) pH 7.4: >100 % w/v
  Solubility (% w/v) Water room T: >100 % w/v
